Experimental data as given in patent publication US9777000B2, “Pyrazole derivative” (MOCHIDA PHARMACEUTICAL CO., LTD., priority 2013, dated 2017).

Molecular target: human PDE10 (Homo sapiens (Human), UniProt Q9Y233)
Assay: Evaluation of enzyme inhibitory activity: human PDE10 inhibitory effect (IMAP TR-FRET)
Format: biochemical
Settings: cAMP substrate
In short: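 IMAP TR-FRET assay: PDE10 (diluted to 2 ng/mL) was preincubated 5 min with compound in Tris pH 7.2, 10 mM MgCl2, 0.1% BSA, then reacted 60 min at room temperature with cAMP (diluted to 400 nM). 5′-AMP was read as 520/490 nm TR-FRET (ex 340 nm) after ≥3 h binding; IC50 was referenced to solvent (0%) and no-enzyme (100%) wells.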

Sequence of human PDE10 (Q9Y233 whole entry): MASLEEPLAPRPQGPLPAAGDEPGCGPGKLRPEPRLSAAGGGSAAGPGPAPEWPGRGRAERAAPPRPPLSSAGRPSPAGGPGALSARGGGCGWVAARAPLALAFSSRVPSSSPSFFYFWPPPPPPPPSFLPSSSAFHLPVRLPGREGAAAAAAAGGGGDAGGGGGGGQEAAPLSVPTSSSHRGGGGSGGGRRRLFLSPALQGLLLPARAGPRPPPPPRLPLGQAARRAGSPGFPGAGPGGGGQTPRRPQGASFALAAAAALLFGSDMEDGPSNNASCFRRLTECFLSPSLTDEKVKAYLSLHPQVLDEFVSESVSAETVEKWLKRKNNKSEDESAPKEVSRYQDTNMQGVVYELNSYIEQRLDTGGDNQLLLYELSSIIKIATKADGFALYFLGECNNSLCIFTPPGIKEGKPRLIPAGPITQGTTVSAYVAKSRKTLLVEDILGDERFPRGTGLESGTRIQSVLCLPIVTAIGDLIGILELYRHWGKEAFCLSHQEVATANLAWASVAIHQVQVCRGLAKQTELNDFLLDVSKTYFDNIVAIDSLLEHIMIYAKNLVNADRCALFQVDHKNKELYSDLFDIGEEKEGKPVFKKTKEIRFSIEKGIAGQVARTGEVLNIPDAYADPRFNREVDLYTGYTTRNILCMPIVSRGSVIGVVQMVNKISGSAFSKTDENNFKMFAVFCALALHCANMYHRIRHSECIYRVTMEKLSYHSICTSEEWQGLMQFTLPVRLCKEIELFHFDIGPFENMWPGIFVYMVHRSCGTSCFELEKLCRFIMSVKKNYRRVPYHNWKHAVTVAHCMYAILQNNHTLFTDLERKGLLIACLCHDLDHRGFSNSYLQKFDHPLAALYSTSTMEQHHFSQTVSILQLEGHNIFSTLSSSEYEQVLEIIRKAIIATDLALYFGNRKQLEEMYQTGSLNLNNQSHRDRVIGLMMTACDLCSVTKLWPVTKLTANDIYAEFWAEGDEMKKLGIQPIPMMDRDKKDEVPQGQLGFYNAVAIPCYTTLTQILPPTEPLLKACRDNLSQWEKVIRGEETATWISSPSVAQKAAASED

With `Cc1sc(-c2cnn(C)c2C(=O)Nc2ccn3nc(N4CC[C@H](F)C4)nc3c2)nc1C(F)F` [Example 4.23, (S)-4-(4-(difluoromethyl)-5-methylthiazol-2-yl)-N-(2-(3-fluoropyrrolidin-1-yl)-[1,2,4]triazolo[1,5-a]pyridin-7-yl)-1-methyl-1H-pyrazole-5-carboxamide] the IC50 was < 5 nM.

`Cc1cc(C)nc(-c2cnn(C)c2C(=O)Nc2cc3nc(N4CC[C@H](F)C4)nn3cc2F)c1` [Example 4.24, (S)-4-(4,6dimethylpyridin-2-yl)-N-(6-fluoro-2-(3-fluoropyrrolidin-1-yl)-[1,2,4]triazolo[1,5-a]pyridin-7-yl)-1-methyl-1H-pyrazole-5-carboxamide] was tested, and the IC50 was < 5 nM.

`Cn1ncc(-c2nc(C(F)F)cs2)c1C(=O)Nc1ccn2nc(N3CCCC3)nc2c1` [Example 4.25, 4-(4-(difluoromethyl)thiazol-2-yl)-1-methyl-N-(2-(pyrrolidin-1-yl)-[1,2,4]triazolo[1,5-a]pyridin-7-yl)-1H-pyrazole-5-carboxamide] was tested, and the IC50 was < 5 nM.

`Cn1ncc(-c2nc(C(F)F)c(Cl)s2)c1C(=O)Nc1ccn2nc(N3CCCC3)nc2c1` [Example 4.26, 4-(5-chloro-4-(difluoromethyl)thiazol-2-yl)-1-methyl-N-(2-(pyrrolidin-1-yl)-[1,2,4]triazolo[1,5-a]pyridin-7-yl)-1H-pyrazole-5-carboxamide] was tested, and the IC50 was < 5 nM.

`Cn1ncc(-c2cccc(C(F)(F)F)n2)c1C(=O)Nc1ccn2nc(N3CCCC3)nc2c1` [Example 4.27, 1-methyl-N-(2-(pyrrolidin-1-yl)-[1,2,4]triazolo[1,5-a]pyridin-7-yl)-4-(6-(trifluoromethyl)pyridin-2-yl)-1H-pyrazole-5-carboxamide] was tested, and the IC50 was < 5 nM.

For `COc1ccnc(-c2cnn(C)c2C(=O)Nc2ccn3nc(N4CCCC4)nc3c2)c1` [Example 4.28, 4-(4-methoxypyridin-2-yl)-1-methyl-N-(2-(pyrrolidin-1-yl)-[1,2,4]triazolo[1,5-a]pyridin-7-yl)-1H-pyrazole-5-carboxamide], the IC50 was < 5 nM.

With `Cc1cncc(-c2cnn(C)c2C(=O)Nc2ccn3nc(N4CCCC4)nc3c2)n1` [Example 4.29, 1-methyl-4-(6-methylpyrazin-2-yl)-N-(2-(pyrrolidin-1-yl)-[1,2,4]triazolo[1,5-a]pyridin-7-yl)-1H-pyrazole-5-carboxamide] the IC50 was < 5 nM.

With `Cc1cccc(-c2cnn(C)c2C(=O)Nc2ccn3nc(N4CCCC4)nc3c2)n1` [Example 4.31, 1-methyl-4-(6-methylpyridin-2-yl)-N-(2-(pyrrolidin-1-yl)-[1,2,4]triazolo[1,5-a]pyridin-7-yl)-1H-pyrazole-5-carboxamide] the IC50 was < 5 nM.

In the case of `Cc1cc(C)nc(-c2cnn(C)c2C(=O)Nc2ccn3nc(N4CCCC4)nc3c2)c1` [Example 4.32, 4-(4,6-dimethylpyridin-2-yl)-1-methyl-N-(2-(pyrrolidin-1-yl)-[1,2,4]triazolo[1,5-a]pyridin-7-yl)-1H-pyrazole-5-carboxamide], the IC50 is reported as < 5 nM.

`Cc1sc(-c2cnn(C)c2C(=O)Nc2ccn3nc(N4CCCC4)nc3c2)nc1C(F)F` [Example 4.33, 4-(4-(difluoromethyl)-5-methylthiazol-2-yl)-1-methyl-N-(2-(pyrrolidin-1-yl)-[1,2,4]triazolo[1,5-a]pyridin-7-yl)-1H-pyrazole-5-carboxamide] was tested, and the IC50 was < 5 nM.

With `Cn1ncc(-c2nc(C(F)(F)F)cs2)c1C(=O)Nc1ccn2nc(N3CCCC3)nc2c1` [Example 4.34, 1-methyl-N-(2-(pyrrolidin-1-yl)-[1,2,4]triazolo[1,5-a]pyridin-7-yl)-4-(4-(trifluoromethyl)thiazol-2-yl)-1H-pyrazole-5-carboxamide] the IC50 was < 5 nM.

`Cc1ncc(C)c(-c2cnn(C)c2C(=O)Nc2cc3nc(N4CCCC4)nn3cc2F)n1` [Example 4.35, 4-(2,5-dimethylpyrimidin-4-yl)-N-(6-fluoro-2-(pyrrolidin-1-yl)-[1,2,4]triazolo[1,5-a]pyridin-7-yl)-1-methyl-1H-pyrazole-5-carboxamide] was tested, and the IC50 was < 5 nM.

`C=Cc1sc(-c2cnn(C)c2C(=O)NC2CCn3nc(-c4ccccc4)nc3C2)nc1C(F)F` (stereo not drawn) [Example 5.5, 4-(4-(difluoromethyl)-5-vinylthiazol-2-yl)-1-methyl-N-(2-phenyl-5,6,7,8-tetrahydro-[1,2,4]triazolo[1,5-a]pyridin-7-yl)-1H-pyrazole-5-carboxamide] was tested, and the IC50 was < 5 nM.

In the case of `CCc1sc(-c2cnn(C)c2C(=O)NC2CCn3nc(-c4ccccc4)nc3C2)nc1C(F)F` (stereo not drawn) [Example 5.6, 4-(4-(difluoromethyl)-5-ethylthiazol-2-yl)-1-methyl-N-(2-phenyl-5,6,7,8-tetrahydro-[1,2,4]triazolo[1,5-a]pyridin-7-yl)-1H-pyrazole-5-carboxamide], the IC50 is reported as < 5 nM.

With `Cc1nc(-c2cnn(C)c2C(=O)NC2CCn3nc(-c4ccccc4)nc3C2)sc1Br` (stereo not drawn) [Example 5.7, 4-(5-bromo-4-methylthiazol-2-yl)-1-methyl-N-(2-phenyl-5,6,7,8-tetrahydro-[1,2,4]triazolo[1,5-a]pyridin-7-yl)-1H-pyrazole-5-carboxamide] the IC50 was < 5 nM.

For `Cn1ncc(-c2nc(C(F)F)cs2)c1C(=O)NC1CCn2nc(-c3ccccc3)nc2C1` (stereo not drawn) [Example 5.17, 4-(4-(difluoromethyl)thiazol-2-yl)-1-methyl-N-(2-phenyl-5,6,7,8-tetrahydro-[1,2,4]triazolo[1,5-a]pyridin-7-yl)-1H-pyrazole-5-carboxamide], the IC50 was < 5 nM.

`Cn1ncc(-c2nc(C(F)F)c(Cl)s2)c1C(=O)NC1CCn2nc(-c3ccccc3)nc2C1` (stereo not drawn) [Example 5.29, 4-(5-chloro-4-(difluoromethyl)thiazol-2-yl)-1-methyl-N-(2-phenyl-5,6,7,8-tetrahydro-[1,2,4]triazolo[1,5-a]pyridin-7-yl)-1H-pyrazole-5-carboxamide] was tested, and the IC50 was < 5 nM.

For `COc1ccccc1-c1nc2n(n1)CCC(NC(=O)c1c(-c3nc(C(F)F)cs3)cnn1C)C2` (stereo not drawn) [Example 5.34, 4-(4-(difluoromethyl)thiazol-2-yl)-N-(2-(2-methoxyphenyl)-5,6,7,8-tetrahydro-[1,2,4]triazolo[1,5-a]pyridin-7-yl)-1-methyl-1H-pyrazole-5-carboxamide], the IC50 was < 5 nM.

For `Cc1sc(-c2cnn(C)c2C(=O)NC2CCn3nc(-c4ccc(F)cc4)nc3C2)nc1C(F)F` (stereo not drawn) [Example 5.36, 4-(4-(difluoromethyl)-5-methylthiazol-2-yl)-N-(2-(4-fluorophenyl)-5,6,7,8-tetrahydro-[1,2,4]triazolo[1,5-a]pyridin-7-yl)-1-methyl-1H-pyrazole-5-carboxamide], the IC50 was < 5 nM.

For `Cc1nc(-c2cnn(C)c2C(=O)NC2CCn3nc(N4CCCC4)nc3C2)sc1C` (stereo not drawn) [Example 5.45, 4-(4,5-dimethylthiazol-2-yl)-1-methyl-N-(2-(pyrrolidin-1-yl)-5,6,7,8-tetrahydro-[1,2,4]triazolo[1,5-a]pyridin-7-yl)-1H-pyrazole-5-carboxamide], the IC50 was < 5 nM.

For “(R)-N-(6-fluoro-2-(2trifluoromethyl)pyrrolidin-1-yl)-[1,2,4]triazolo[1,5-a]pyridin-7-yl)-1-methyl-4-(6-methylpyridin-2-yl)-1H-pyrazole-5-carboxamide [Example 4.11]”, the IC50 was < 5 nM.
